Test system: cryopreserved primary human hepatocytes
Test: Metabolic stability in cryopreserved primary human hepatocytes
Format: in vitro ADME
Settings: 4 h incubation with human hepatocytes, compound concentration 5 μg/mL, 37° C., LC/MS
Procedure: The metabolic stability for compounds of the present invention was determined by using cryopreserved primary human hepatocytes. 1×10^6 cells/mL were incubated in the absence and the presence of 5 and 25 μg/mL of the test compounds at 37° C., 5% CO2 for 4 hours, To evaluate the in vitro degradation under assay conditions, a sample of each test compound was incubated also in the absence of hepatocytes. The incubation was stopped by freezing the reaction mixture. After ultrafiltration and washing of the filter with acetonitrile, the sample solution was analyzed for parent compound disappearance or metabolite appearance using LC/MS (ion trap). The metabolic stability value corresponds to the detected parent compound in % after incubation.

Substance | parent compounds found (metabolic stability value) [%]
14-O-{[(1R, 2R, 5S)-5-Amino-2-hydroxy-cyclohexylsulfanyl]-acetyl}-mutilin hydrochloride+(1s, 2S, 5R) diastereomer hydrochloride [Example 2] | 66
14-O-{[(1R, 3S)-3-Amino-cyclohexylsulfanyl]-acetyl}-mutilin hydrochloride and the (1S, S3R) diastereomer hydrochloride thereof | 24
